Results from patent US11739099B2 (CURIA IP HOLDINGS, LLC, priority 2014, dated 2023).

Assays:
[1] = literature studies (Cellai et al. 1983; Viscomi et al. 2008); cited from earlier work
[2] = Solid-state change of Rifaximin α form on wet granulation with purified water; format: physicochemical; settings: purified water as binding agent
[3] = Solid-state stability of the α/β ratio after dry granulation and tableting, DRX (powder); format: physicochemical; settings: tablets before coating, ground in a mortar

Question: For Rifaximin [δ], which “Absorption from the intestine” value [1] is on record?
Answer: The value was “could be significantly absorbed”.

Question: Which “Amount of Rifaximin β form afforded by wet granulation” value [2] does the source give for `CO[C@H]1/C=C/O[C@@]2(C)Oc3c(C)c(O)c4c(O)c(c5c(nc6cc(C)ccn65)c4c3C2=O)NC(=O)/C(C)=C\C=C\[C@H](C)[C@H](O)[C@@H](C)[C@@H](O)[C@@H](C)[C@H](OC(C)=O)[C@@H]1C` [Rifaximin α form, Rifaximin] here?
Answer: Its value is under 50%.

Question: With “Rifaximin [Rifaximin α/β polymorphic mixture 88/12]” as the compound, how does the “Relative ratio between the α/β polymorphic form after dry granulation and tableting” value [3] read?
Answer: Its value is “stable”.
